The text below walks through data of US6646006B2, “Enhancement of vascular function by modulation of endogenous nitric oxide production or activity” (The Board of Trustees of the Leland Stanford Junior …, priority 1993, dated 2003).

Structures are written as SMILES. Entries after “also recorded” stand apart in the source; their conditions may differ.

Data set [1] relates to hypercholesterolemic rabbits. The data set is described as follows: Histomorphometry and lesion surface area planimetry of thoracic aorta and left main coronary artery. It counts as in vivo, rabbit. The source says: Study design: (See, Cooke et al., 1992, supra) Male New Zealand white rabbits (n=49) were assigned to one of three treatment groups: 10 were fed with normal rabbit chow for ten weeks (Control); 19 received chow enriched with 1% cholesterol (Chol); and 20 received a 1% cholesterol diet supplemented with 2.25% L-arginine hydrochloride in the drinking water (Arg.). […] Subsequently the animals were sacrificed and the left main coronary artery and the thoracic aorta were harvested for studies of vascular reactivity and histomorphometry. In some animals, blood was collected for studies of platelet and monocyte reactivity.
By contrast, the intimal cross-sectional area (i.e. amount of atherosclerotic plaque) of vessels from hypercholesterolemic animals receiving L-arginine supplementation was reduced in comparison to those from animals receiving cholesterol diet alone. In the Arg animals the reduction in the intimal lesion was most pronounced in the ascending thoracic aorta and left main coronary artery.
Changes in lesion surface area: In a second series of studies, the extent of the thoracic aorta involved by lesions was examined. In hypercholesterolemic rabbits receiving vehicle (n=6) or L-arginine supplement (n=6), thoracic aortae (from left subclavian artery to diaphragm) were harvested after ten weeks of treatment, bisected longitudinally, and stained with oil-red O. Vessels were photographed and vessel and lesion surface area determined by planimetry. Approximately 40% of the total surface area was covered with plaque in thoracic aortae from hypercholesterolemic animals receiving vehicle, whereas in thoracic aortae from arginine-treated hypercholesterolemic animals, less than 10% of the surface area was covered with plaque (FIG. 1).

A further data set relates to monocytes. The experiment in a line: Functional binding assay: rabbit blood mononuclear cells to bEnd3 endothelial cells. It counts as in vivo. The conditions noted are these: Arg vs vehicle-treated Chol animals. The source says: To determine if oral arginine supplementation affects monocyte adherence, blood was collected from rabbits fed normal chow (=6) a 1% cholesterol diet (=6), or a 1% cholesterol diet supplemented with L-arginine (=6), as described above. Mononuclear cells were purified from blood by Ficoll-paque density gradient centrifugation. In these preliminary studies, adhesion was examined of blood leukocytes to a transformed endothelial cell line, bEnd3 (mouse brain-derived polyoma middle T antigen transformed endothelial cells). The Bend3 cells display the morphology of endothelial cells, and like human endothelial cells are capable of uptake of acetylated low-density lipoprotein and express adhesion molecules in a cytokine-regulatable fashion. Cultured cells were grown to confluence in 0.5 cm^2 Lab-Tek chamber slides (MilesScientific) and treated with control medium or with LPS (1 mg/ml) or TNFα (25 U/ml) for 18 hours. Cultures were washed with fresh assay buffer, and low, medium, or high concentrations of leukocytes (0.75, 1.5, or 3×10^5 cells/ml, respectively) were added per well. Following a 30-minute incubation on a rocking platform at room temperature to allow binding, the slides were inverted and immersed in buffer containing 2% (v/v) glutaraldehyde, such that non-adherent cells were lost and adherent cells were fixed to the monolayer. […]

The subject of data set [2] is hypercholesterolemic rabbits. The data set is described as follows: Regression of pre-existing atherosclerosis in hypercholesterolemic rabbits. The following applies: for Lesion surface area of thoracic aortae: all arginine treated animals weeks 14-23 vs vehicle. It counts as in vivo, rabbit. An excerpt: This is clinically important if arginine is to be useful in the treatment of pre-existing atherosclerosis in humans. Accordingly, New Zealand white rabbits (n=85) received normal chow or 0.5% cholesterol chow for 10 weeks. Subsequently, half of the hypercholesterolemic rabbits were given 2.25% (W/V) L-arginine in their drinking water. Thoracic aortae were harvested at weeks 10, 14, 18, or 23. Rings of aorta were used to assess NO-dependent vasodilation to acetylcholine (ACh). Maximal relaxation to ACh in the hypercholesterolemic rabbits receiving vehicle (CHOL) became progressively attenuated from 53.4% (at week 10) to 17.4% (by week 23). […] By contrast, hypercholesterolemic animals receiving arginine (ARG) manifested improved endothelium-dependent relaxation associated with a reduction of plaque area at 14 and 18 weeks.

The test system of data set [3] is hypercholesterolemic rabbits. The experiment in a line: Balloon angioplasty of the iliac artery in hypercholesterolemic rabbits, oral arginine. It counts as in vivo, rabbit. An excerpt: Methods. Twenty-eight New Zealand white rabbits were randomized into one of three dietary groups and received either normal rabbit chow, 0.5% cholesterol diet, or 0.5% cholesterol diet plus L-arginine hydrochloride (2.25% W/V) in the drinking water. After six weeks of dietary intervention, left iliac artery of each animal was subjected to a balloon angioplasty. Four weeks later, the iliac arteries were harvested for vascular reactivity studies and immunohistochemistry.

Data set [4] relates to hypercholesterolemic rabbits. The data set is described as follows: Local intraluminal arginine after iliac artery angioplasty in cholesterol-fed rabbits. It counts as in vivo, rabbit. The conditions noted are these: local infusion 6 mM, four weeks. An excerpt:
FIG. 8 is a histogram showing the effect of local-intraluminal administration of arginine on restenosis. Hypercholesterolemic rabbits had balloon angioplasty of the iliac artery. Immediately thereafter some animals received an infusion of arginine directly into the vessel by means of a catheter designed to apply high local concentrations of arginine to the vessel. Two to four weeks later, vessels were removed from the animals, and examined microscopically. Thickening of the vessel wall (internal thickening or “restenosis”) was reduced in the animals treated with intraluminal infusion of arginine (ARG) in comparison to those treated with vehicle. (See Ex. 12)
To determine if intraluminal application of arginine to the vessel wall at the time of balloon angioplasty could inhibit lesion formation, the following study was performed. Rabbits (n=7) were fed a 1% cholesterol diet. After one week, angioplasty of the iliac arteries was performed. After angioplasty of one iliac artery, a local infusion catheter was used to expose the injured area to a high concentration of arginine (6 mM). The other iliac artery was subjected to balloon angioplasty, but not treated with a local infusion. After four weeks, the vessels were harvested, and segments of the arteries processed for histomorphometry.

Details of data set [5]: species or system human. The following applies: in vivo, po. Here is the method: The control subject population in this study included 12 normal volunteers, (10 males and 2 females), with an average age of 37±2 yrs. Normalcy was determined by a careful history, physical examination, and laboratory analysis to exclude individuals with hematologic, renal, or hepatic dysfunction or clinically evident atherosclerosis. There were 20 patients (10 males and 10 females) with hypercholesterolemia as defined by a total plasma cholesterol greater than 240 mg/dl and a LDL cholesterol level greater than 160 mg/dl. […] None of the subjects were taking diuretics, vasoactive medications, antiplatelet or hypolipidemic medications. This study was approved by the Stanford University Administrative Panel on Human Subjects in Medical Research and each subject gave written informed consent before entry into the study. Blood was drawn from each subject in the postabsorptive state.
Results. Oral administration of L-arginine ([…] for 2 weeks) to hypercholesterolemic humans increased plasma arginine values by 60% (from […]; n=7), whereas L-arginine values in the placebo-treated (n=3) and normocholesterolemic (n=6) groups remained unchanged.

As to `N=C(N)NCCC[C@H](N)C(=O)O` [L-arginine], the “atherosclerotic plaque in the left main coronary artery” value in data set [1] (hypercholesterolemic animals receiving arginine) is “essentially no atherosclerotic plaque developed”. Further, in data set [1] (ten weeks, oil-red O, planimetry), the “surface area of thoracic aorta covered with plaque” value is listed as “less than 10%”. In data set [1] (vs cholesterol diet alone), the “intimal cross-sectional area (amount of atherosclerotic plaque)” value was “reduced”. In addition, in the data set with monocytes, the “adherence of monocytes to bEnd3 cells” value is listed as “much less adherent”. Also, the “plaque area of total surface of thoracic aorta” value in data set [2] (23 weeks, 3 of 7 ARG animals with persistent improvement) came out at 5.4%. Also, in data set [2] (ARG animals), the “generation of vascular NO” value was “increased generation” and the “generation of vascular superoxide anion” value is listed as “reduced generation”. The plaque area result in data set [2] (ARG animals at 14 and 18 weeks) is “reduction”. The endothelium-dependent relaxation result in data set [2] (ARG animals, 14 and 18 weeks) is on record as “improved”. The “Lesion surface area of thoracic aortae” value in data set [2] is listed as “significantly reduced”. In addition, in data set [2] (listed as arginine), the “Lesion surface area of thoracic aortae” value was “reduced”. Further, the “intimal thickening in injured vessels” value in data set [3] (four weeks after balloon angioplasty) is “reduced”. In data set [3] (four weeks after balloon injury, ARG vs CHOL), the “accumulation of macrophages in the lesion” value was “substantially inhibited; also recorded: significantly reduced”. Also, the “endothelium-derived NO activity (bioassay)” value in data set [3] (iliac artery, hypercholesterolemic animals) is “partially restored”. In addition, in data set [4], the “thickening of the vessel wall in arginine-treated vessels” value was “significantly reduced”. Besides, in data set [5] (human, 2 weeks), the “increase of plasma arginine values” came out at 60% and the “plasma arginine value after treatment” value came to 128 ± 12 mM. Also, in data set [5], the “effect on biochemical or hematologic parameters” value is reported as “no effect” and the tolerability entry was “well tolerated”.
